Data set [1] concerns S. aureus ATCC 29213 and other strains. Description: Systemic infection model in mice, ED50 by Probit analysis. In kind it is in vivo. Particulars: Staphylococcus aureus, ATCC29213, Swiss albino mice, survival observed 5 to 7 days, route and regimen not stated per value. As to the method:
Efficacies of the molecules were determined by systemic infection model. In this model, 6-7 weeks old Swiss albino mice (3 Males and 3 Females/group) weighing 21-25 grams were used. S. aureus ATCC 29213 and other strains were cultured on Columbia Blood agar (DIFCO), overnight, at 37° C. for 18 to 24 hours. Inoculum was prepared in 0.9% saline and optical density (OD) was adjusted at 560 nm to get 100×LD50 dose. Inoculum was diluted 1:1 with 10% Hog Gastric Mucin and 0.5 ml of inoculum was injected intraperitonially to each animal. Test compounds were solubilised in suitable formulation and administered by per-oral, subcutaneous or intra venous route by q.d., b.i.d. or t.i.d. protocol. […] ED50 Value (mg/kg) was calculated by Probit analysis.

Molecules are shown by their SMILES.

Among the data in patent publication US20100298384A1, “NOVEL OXAZOLIDINONE COMPOUNDS AS ANTIINFECTIVE AGENTS” (priority 2006, published 2010) are ED50 and melting point values, retold here.

As to `COC(=O)NC[C@H]1CN(c2ccc(-n3cnc(Cn4cccn4)c3)c(F)c2)C(=O)O1` [Example 44, Methyl {3-[3-fluoro-4-(4-pyrazol-1-ylmethyl-imidazol-1-yl)-phenyl]-2-oxo-oxazolidin-5-ylmethyl}-carbamate], the melting point turned out to be 130 °C. The same compound displayed an ED50 in data set [1] of 5.02 mg/kg.
For `CC(=O)NC[C@H]1CN(c2ccc(-n3cc(Cn4cncn4)nn3)c(F)c2)C(=O)O1` [Example 30] the same measures were 170 to 171 °C and 8.5 mg/kg.
`COC(=O)NC[C@H]1CN(c2ccc(-n3cc(Cn4cccn4)nn3)c(F)c2)C(=O)O1` [Example 46, Methyl N-{3-[3-fluoro-4-(4-pyrazol-1-yl-methyl-(1,2,3)triazol-1-yl)-phenyl]-2-oxo-oxazolidin-5-ylmethyl}carbamate]: the 50% effective dose (ED50) in data set [1] was found to be 2.53 mg/kg.
Compound `CC(=O)NC[C@H]1CN(c2ccc(-c3nc(Cn4cncn4)co3)c(F)c2)C(=O)O1` [Example 4, N-{3-[3-fluoro-4-(4-[1,2,4]-triazol-1-ylmethyl-oxazol-2-yl)-phenyl]-2-oxo-oxazolidin-5(S)-ylmethyl}-acetamide] registered a melting point of 160 to 162 °C. Further, the 50% effect level in data set [1] (ED50) was put at a dose of 5.38 mg/kg.
On the same counts, the results for `CC(=O)NC[C@H]1CN(c2ccc(-c3nc(Cn4cccn4)co3)c(F)c2)C(=O)O1` [Example 2, N-{3-[3-fluoro-4-(4-pyrazol-1-ylmethyl-oxazol-2-yl)-phenyl]-2-oxo-oxazolidin-5(S)-ylmethyl}-acetamide] are 204 to 206 °C and 7.1 mg/kg.
Compound `COC(=S)NC[C@H]1CN(c2ccc(-c3nc(Cn4cccn4)cs3)c(F)c2)C(=O)O1` [Example 53, O-methyl {3-[3-fluoro-4-(4-pyrazol-1-ylmethyl-thiazol-2-yl)-phenyl]-2-oxo-oxazolidin-5(S)-ylmethyl}-thiocarbamate] returned a melting point of 157 to 158 °C.
